Results from patent US11306089B2, “Gamma-carboline compounds for the detection of Tau aggregates” (AC IMMUNE SA, priority 2018, dated 2022).

Assays:
[1] = target: Tau in human Alzheimer disease brain homogenate (Homo sapiens, UniProt P10636); assay: Competition binding to Tau in AD brain homogenate (18F-labeled Tau binder); set-up: key to High affinity to Tau (IC50 in AD brain homogenate), grade: − poor; ∘ moderate; + good; ++ very good; +++ excellent
Experimental: Determination of Binding in AD and Healthy Control Brain Homogenates
20 μg of human Alzheimer disease brain homogenate was incubated with a dilution series of each test compound (1000 to 0.06 nM) in the presence of 800 Bq of ^18F-labeled Tau binder. The samples were shaken at 110 rpm for 45 min at 37° C. Samples were then filtered through GF/B 96 well filter plates and washed twice with 300 μL assay buffer (PBS containing 0.1% BSA and 2% DMSO). Thereafter, filter plates were sealed and a Fuji Film Imaging Plate (BAS-SR2025) was placed on top. The imaging plate was analyzed after overnight exposition using a Fuji Film BAS-5000. Non-specific signal was determined with samples containing ^18F-labeled Tau-reference binder in the presence of assay buffer without brain substrate and competitor. Specific binding was calculated by subtracting the non-specific signal from the measured samples signal. The unblocked ^18F-labeled Tau-binder signal was defined as total binding. IC50 values were calculated by Prism V7 (GraphPad) setting total binding to 100%.

MAO-A = target: T1, MAO-A (Mus musculus, UniProt Q64133); assay: Binding affinity to MAO-A in mouse whole brain homogenate (3H-Harmine competition); set-up: key to Low affinity to MAO A (IC50 in mouse brain homogenate), grade: − poor; ∘ moderate; + good; ++ very good; +++ excellent
T1 construct: 20 μg of mouse whole brain or human brain homogenate; from tissue; host or cells: mouse whole brain homogenate
T1 sequence (Q64133 1-526): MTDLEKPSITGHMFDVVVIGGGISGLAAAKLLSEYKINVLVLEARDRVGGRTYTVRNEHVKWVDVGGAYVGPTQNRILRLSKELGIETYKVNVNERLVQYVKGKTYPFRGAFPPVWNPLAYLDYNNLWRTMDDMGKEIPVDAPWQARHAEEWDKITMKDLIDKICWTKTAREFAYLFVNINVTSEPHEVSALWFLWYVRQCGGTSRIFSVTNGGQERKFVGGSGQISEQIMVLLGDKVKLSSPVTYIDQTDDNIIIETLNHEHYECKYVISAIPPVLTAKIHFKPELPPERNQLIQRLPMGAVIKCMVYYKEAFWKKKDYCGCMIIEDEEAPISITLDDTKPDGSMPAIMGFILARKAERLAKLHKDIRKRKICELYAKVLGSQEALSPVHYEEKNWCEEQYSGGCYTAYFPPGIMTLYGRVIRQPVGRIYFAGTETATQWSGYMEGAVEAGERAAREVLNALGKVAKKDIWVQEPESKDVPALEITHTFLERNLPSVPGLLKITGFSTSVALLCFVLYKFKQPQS
Experimental: Determination of the Binding Affinity to MAO-A in HC Brain Homogenate
20 μg of mouse whole brain or human brain homogenate (without AD pathology, HC) was incubated with a dilution series of each test compound (1000 to 0.06 nM) in the presence of 700 Bq of ^3H-labeled MAO-A binder Harmine. The samples were shaken at 110 rpm for 60 min at 37° C. Samples were then filtered through GF/B 96 well filter plates and washed twice with 200 μL assay buffer (PBS containing 0.1% BSA and 2% DMSO). Thereafter, 40 μL Szintillation cocktail was added and the filter plates were sealed. The counts were then counted using a TopCount (Perkin Elmer). Non-specific signal was determined with samples containing ^3H-Harmine in the presence of assay buffer without brain substrate and competitor. Specific binding was calculated by subtracting the non-specific signal from the measured samples signal. The unblocked ^3H-Harmine signal was defined as total binding. IC50 values were calculated by Prism V7 (GraphPad) setting total binding to 100%.

[2] = mouse brain homogenate, 3H-Harmine competition

Chain of Tau in human Alzheimer disease brain homogenate (P10636 623-708 limits assumed): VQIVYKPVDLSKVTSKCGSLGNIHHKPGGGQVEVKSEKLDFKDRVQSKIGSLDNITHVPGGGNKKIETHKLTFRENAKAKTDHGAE

| Compound | affinity towards tau (in words) ([1]; competition assay, human AD brain homogenate) | MAO-A binding affinity (in words) (MAO-A; [2]) | High affinity to Tau (IC50 in AD brain homogenate), grade ([1]; AD brain homogenate, non-radioactive fluorine-19 derivatives) | IC50 ([1]; human AD brain homogenate, non-radioactive fluorine-19 derivatives) [nM] | Low affinity to MAO A (IC50 in mouse brain homogenate), grade (MAO-A; mouse brain homogenate) | IC50 (MAO-A; [2]) [nM] | fold higher IC50 than compound 18F-1, MAO A in whole mouse brain homogenate (MAO-A; ratio to 18F-1) [fold] |
| --- | --- | --- | --- | --- | --- | --- | --- |
| Fc1cc(-c2nc3[nH]c4ccncc4c3s2)ccn1 [F-3] | good affinity | Low affinity |  |  |  |  |  |
| [18F]c1cc(-c2cc3[nH]c4ccncc4c3s2)ccn1 [^18F-3] |  |  | + | 13.4 | +++ | > 1000 | > 100 |
